Source: patent publication US10174120B2, “Methods and compositions for treating solid tumors and enhancing tumor vaccines” (THE TRUSTEES OF THE UNIVERSITY OF PENNSYLVANIA, priority 2007, dated 2019)
“Also recorded” adds a separate entry of the source.

Assays:
[1] = tested on: HUVEC; assay: Adhesion of activated T cells to pretreated HUVEC; assay type: cell-based, human; settings: for T cell adhesion to HUVEC in the presence of TNF- and ET-1: NO antagonist / NO donor under the same experimental conditions; for adherence of activated human T cells to HUVEC: T cells activated with PMA or CD3/CD28, Endothelin plus BQ-788 compared to Endothelin alone, Endothelin and ETRA antagonist, or untreated
Description: (§1) Human vascular endothelial cells (HUVEC) were grown to 70% confluence in EBM media then treated with 50 nM Endothelin receptor B inhibitor BQ-788 (American peptide), or 2.5 nm Endothelin alone or in the presence of either 50 nm Endothelin receptor A inhibitor BQ123 (American peptide), or 50 nM Endothelin receptor B inhibitor BQ-788. Alternatively cells were treated with BQ-788 alone. Media was changed every 48 hrs for a total of 6 days. After 6 days cells were harvested for RNA, flow cytometry or incubated activated T cells. T cells were activated for 48 hours with either 5 ng/ml PMA […] or CD3 and CD28 beads. After activation T cells were labeled with CFSE and then incubated with pretreated endothelial cells for 2 hours with shaking. Cells were then washed 3× with PBS and adhesions was determined using a fluorescent plate reader.
The ability of activated T cells to adhere to BQ-788-treated HUVEC was also tested. […] T cell adherence to BQ788/Endothelin-treated HUVEC was 40% as effective as TNF-alpha activation of HUVEC. Thus, under the conditions utilized, BQ788 induces expression of ICAM-1 on endothelial cells and leads to increased T cell adhesion to tumor endothelium, playing a role in its increase of intratumoral T cells and enhancement of vaccine efficacy.
(§2) To further test the role of ETRB signaling in adhesion, the effects of NO antagonist L-NAME and NO donor DETANO were tested under the above experimental conditions. […] Thus, ET-1, through ETRB, downregulates the ability of endothelium to respond to inflammatory signals present in the tumor microenvironment such as TNF-α, which is restored by blocking ETRB through BQ788. Further, an NO antagonist abrogated the effects of ET-1, while NO donor reproduced its effect, showing that NO plays a role in the inhibitory effect of ET-1. To further test whether ETRB signaling upregulates NO in endothelial cells, reactive oxidative species (ROS) were quantified in HUVEC.

[2] = tested on: HUVEC; assay: Reactive oxidative species (ROS) quantified in HUVEC; assay type: cell-based, human; settings: for ROS in HUVEC: exposure to rhET-1, with or without BQ788
Description: as §2

[3] = tested on: CD3+/CD8+ splenocytes; assay: T cell proliferation assay, CFSE-labeled splenocytes with DC pulsed with UV-radiated ID8; assay type: cell-based, mice; settings: BQ-788 versus control peptide, 6 days with ID8-pulsed DC
From the text: (§3) To confirm that ETRB plays a role in inhibiting T cell homing to human ovarian cancers, the ID8 syngeneic mouse model of ovarian cancer was utilized. This model responds modestly to potent dendritic cell (DC) vaccination. Strong expression of ETRB was detected in tumor endothelium in ID8 flank tumors by IHC (FIG. 7). Mice were vaccinated with a suboptimal preventive vaccine, containing UV-treated ID8 cells, which results in induction of systemic tumor-reactive interferon-gamma secreting T cells without significant delay in tumor growth Following vaccination, mice were inoculated with flank tumors, which were allowed to engraft for 2 or 5 weeks, and then mice were treated i.p. with the ETRB antagonist peptide, BQ-788, […] (SEQ ID No: 90), every 2nd day for 2 weeks or with control peptide that was a scrambled version of the above peptide. Additional controls included non-vaccinated animals treated with BQ-788 or control peptide. To confirm that the above vaccination scheme results in significant increase in the frequency of systemic tumor-reactive T cells, CD3^+/CD8^+ splenocytes from vaccinated animals treated with BQ-788 or control peptide, and from non-vaccinated mice, were labeled with CFSE and incubated with DC pulsed with UV-radiated ID8 for 6 days to assess proliferation. […] Proliferation of lymphocytes from vaccinated mice treated with BQ-788 or control peptide was similar.

[4] = tested on: ID8 flank tumors; assay: T cell infiltration into ID8 flank tumors (IHC, flow cytometry); assay type: in vivo, mice
Description: (§4) Two injections of 5×10 6th UV irradiated ID8 ovarian cancer cells were injected sub-cutaneously in C57Bl6 mice one week apart. Vaccinated mice and non-vaccinated controls were injected with 5×10^6 ID8 cells in the flank with […] matrigel or intraperitoneally. Tumors were allowed to grow for 2 or 5 weeks as indicated, and then treated with intraperitoneal injections of BQ-788 (300 mcg) or control peptide for 2 weeks.
FACS analysis was performed using APC-CD45 (BD Pharmingen), PE-anti CD3, FITC anti CD4, and Biotin anti-CD8 coupled with streptavid PE-Cy7.
as §3
Tumor growth delay was not observed in non-vaccinated mice treated with BQ-788 or in vaccinated mice treated with control peptide. […] Flow cytometry from mechanically dissected tumors confirmed the results observed with IHC: In non-vaccinated animals treated with BQ-788 as well as in vaccinated animals treated with control peptide, CD3^+ cells represented on average 4% of the cells (range 0.5 to 12%), while vaccinated animals treated with BQ-788, CD3^+ cells represented 15% of the cells (range 8 to 30%), containing both CD4^+ and CD8^+ cells (FIG. 8).

[5] = tested on: intraperitoneal ID8 cells; assay: Orthotopic, intraperitoneal ID8 model of ovarian cancer (ascites, survival); assay type: in vivo, mice; settings: vaccinated animals, BQ-788 every 2nd day for 2 weeks from two weeks after i.p. ID8, versus control peptide
Description: as §4
(§5) Female C57BL/6 mice (8 weeks of age) were injected 3 times […]. with 1×10^6 UV-treated, apoptotic ID8 ovarian cancer cells (resuspended in 500 microliter (mcL) DMEM without supplements) in the flank. For the orthotopic, intraperitoneal model, mice were injected i.p. with 5×10^6ID8 cells.
The impact of BQ-788 on survival in vaccinated animals was also tested in the orthotopic, intraperitoneal ID8 model of ovarian cancer. Following vaccination, mice were injected i.p. with ID8 cells. Two weeks later, animals received either BQ-788 or control peptide every 2nd day for 2 weeks.

[6] = tested on: ID8 cells; assay: CTL assay, lysis of ID8 cells by CD3+/CD8+ splenocytes; assay type: cell-based, mice; settings: splenocytes from vaccinated animals treated with BQ-788
[7] = tested on: HUVEC; assay: HUVEC treated with Endothelin and BQ-788: morphology and qRT-PCR; assay type: cell-based, human; settings: for morphology of HUVEC: BQ-788 in the presence of Endothelin, 6 days
Description: qRT-PCR was performed using primers to the 3′ end of transcripts spanning intron-exon boundaries whenever possible for 35 cycles using Sybergreen® (ABI, Foster City, Calif.), with primers at 150 nM concentrations. Primers were 18-24 nucleotides and were designed to have a TM of 59-61° C. All transcripts were confirmed using 3% agarose gel electrophoresis. Gene expression was normalized against β-actin in all studies unless stated otherwise.
as §1
Next, the effect of BQ-788 on human and murine endothelial cells or T cells was tested in the presence or absence of ET-1 ligand. In addition, the effect of endothelin receptor A antagonist BQ123 was tested. […] Moreover, there was a decrease in the expression of VE-Cadherin mRNA in BQ788-treated cells (FIG. 9).

[8] = tested on: ID8 flank tumors; assay: ID8 flank tumor model, BQ788 as tumor vaccine adjuvant (tumor growth); assay type: in vivo, mice
Description: as §4
The murine epithelial ovarian cancer cell line ID8, syngeneic to C57BL/6 mice was cultured in DMEM supplemented with 4% FBS, 13 ITS media supplement (bovine insulin (5 mg/L), human transferrin (5 mg/L), and sodium selenite ([…]); Sigma), and antibiotics.
as §5
To confirm that ETRB plays a role in inhibiting T cell homing to human ovarian cancers, the ID8 syngeneic mouse model of ovarian cancer was utilized. This model responds modestly to potent dendritic cell (DC) vaccination. Strong expression of ETRB was detected in tumor endothelium in ID8 flank tumors by IHC (FIG. 7). […]

NCCN(CCN)/[N+]([O-])=N/O [DETANO]
T cell adhesion to HUVEC in the presence of TNF- and ET-1 [1]: mimicked the effects of ET-1

CC[C@H](C)[C@H](NC(=O)[C@H](CC(=O)O)NC(=O)[C@H](CC(C)C)NC(=O)[C@H](Cc1c[nH]cn1)NC(=O)[C@@H]1CSSC[C@H](N)C(=O)N[C@@H](CO)C(=O)N[C@H]2CSSC[C@H](NC(=O)[C@H](CCC(=O)O)NC(=O)[C@H](CCCCN)NC(=O)[C@H](CC(=O)O)NC(=O)[C@H](CCSC)NC(=O)[C@H](CC(C)C)NC(=O)[C@H](CO)NC(=O)[C@H](CO)NC2=O)C(=O)N[C@@H](C(C)C)C(=O)N[C@@H](Cc2ccc(O)cc2)C(=O)N[C@@H](Cc2ccccc2)C(=O)N1)C(=O)N[C@H](C(=O)N[C@@H](Cc1c[nH]c2ccccc12)C(=O)O)[C@@H](C)CC [rhET-1]
ROS in HUVEC [2]: upregulated ROS

COC(=O)[C@@H](N)CCCNC(=N)N[N+](=O)[O-] [L-NAME]
T cell adhesion to HUVEC in the presence of TNF- and ET-1 [1]: restored T cell adhesion

CCCC[C@@H](NC(=O)[C@@H](Cc1cn(C(=O)OC)c2ccccc12)NC(=O)[C@H](CC(C)(C)C)NC(=O)N1[C@H](C)CCC[C@@H]1C)C(=O)O [BQ-788]
T cell adherence relative to TNF-alpha activation of HUVEC ([1]; BQ788/Endothelin-treated HUVEC): 40%
adherence of activated human T cells to HUVEC [1]: increased adherence
adherence of activated human T cells to HUVEC ([1]; listed as BQ788): increased ability of T cells to adhere
proliferation of lymphocytes from vaccinated mice [3]: similar
numbers of CD3+, CD8+ T cells in tumors, FACS analysis ([4]; BQ788 treated animals as compared to control animals): increased numbers of CD3^+, CD8^+ T cells
intratumoral CD8+ T cells (IHC) ([4]; non-vaccinated animals treated with BQ-788): scarce intratumoral CD8^+ T cells
CD3+ cells as share of the cells of dissected tumors, flow cytometry, average ([4]; non-vaccinated animals treated with BQ-788, stated together with vaccinated animals treated with control peptide): 4%
CD3+ cells as share of the cells of dissected tumors, flow cytometry ([4]; vaccinated animals treated with BQ-788): 15%
intratumoral CD8+ T cells (IHC) ([4]; vaccinated mice treated with BQ-788): very strong infiltration by CD8^+ T cells
intratumoral CD8+ T cells (IHC) ([4]; vaccinated mice treated with BQ-788, listed as BQ788): significant numbers of CD8^+ T cells
ascites development [5]: developed ascites later
survival [5]: significant prolongation of survival
ID8 cell killing by CD3+/CD8+ splenocytes [6]: robust ID8 cell killing
suppression of ROS compared with bacterial LPS ([2]; HUVEC exposed to ET-1): as potent as bacterial LPS
ROS in HUVEC [2]: abrogated such response to ET-1
mRNA levels for ICAM-2, ICAM-3, E-selectin, JAM, CXCL-11, CCL-19, or CCL-21 ([7]; BQ788-treated HUVEC): No specific changes were detected
expression of VE-Cadherin mRNA ([7]; BQ788-treated HUVEC in the presence of Endothelin): decrease; also recorded: decreased expression of VE-Cadherin
morphology of HUVEC [7]: distinct morphological change
morphology of HUVEC ([7]; listed as BQ788): Morphologic changes
increased expression of ICAM-1 mRNA, qRT-PCR ([7]; Endothelin and BQ-788 compared to untreated HUVEC, Endothelin alone, or Endothelin plus ETRA antagonist): over 7 fold
expression of ICAM1, qRT-PCR (in words) ([7]; Endothelin+BQ788-treated HUVEC as compared to Endothelin alone or BQ788 alone): increased expression of ICAM1
tumor growth delay ([8]; non-vaccinated mice treated with BQ-788): not observed
tumor growth ([8]; vaccinated mice, i.p. BQ-788 every 2nd day for 2 weeks, starting at 2 or at 5 weeks after engraftment): significant reduction in tumor growth
